Data from ChEMBL document CHEMBL1131884, “Dicationic 2-fluorenonylcarbapenems: potent anti-MRS agents with improved solubility and pharmacokinetic properties” (Bioorg Med Chem Lett, 1999).
In brackets after ≈: the same amount, converted by molar mass.

Experiments:
Mus musculus [1] = test: In vivo antibacterial activity against MSSA MB 2985 strain at the dose ~4 *10e7 cfu in brain heart broth along with antibiotic by sc administration at 0 hour in mice; format: functional
Enterococcus faecalis [2] = test: Antibacterial activity against vancomycin-resistant Enterococcus faecalis strain; format: functional
Mus musculus [3] = test: In vivo antibacterial activity against MSSA MB 2985 strain at the dose ~4 *10e7 cfu in brain heart broth along with antibiotic by administration at 0 hour in mice; format: functional
Staphylococcus sp. = test: Antibacterial activity against methicillin-resistant coagulase negative Staphylococci (MRCNS); format: functional
[4] = molecular target: T1, Dipeptidase 1 (Sus scrofa) (UniProt P22412); test: Susceptibility to mammalian dehydropeptidas, DHP-1(Porcine)
T1 sequence (whole entry): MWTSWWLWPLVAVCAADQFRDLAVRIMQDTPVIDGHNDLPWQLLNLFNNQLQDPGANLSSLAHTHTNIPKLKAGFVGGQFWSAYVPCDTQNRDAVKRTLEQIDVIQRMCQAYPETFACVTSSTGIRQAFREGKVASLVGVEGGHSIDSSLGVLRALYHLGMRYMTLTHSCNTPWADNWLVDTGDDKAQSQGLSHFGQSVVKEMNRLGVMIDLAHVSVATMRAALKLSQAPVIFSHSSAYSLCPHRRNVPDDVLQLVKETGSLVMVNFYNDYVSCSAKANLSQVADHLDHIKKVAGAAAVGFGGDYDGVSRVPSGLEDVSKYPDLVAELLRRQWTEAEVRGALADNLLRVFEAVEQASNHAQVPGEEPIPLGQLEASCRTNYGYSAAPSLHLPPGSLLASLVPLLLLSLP

Mus musculus [5] = test: In vivo antibacterial activity against MRSA 76 virginia strain at the dose ~1 *10e7 cfu in 5 percent hog gastric mucin along with antibiotic by sc administration at 0 and +4 hrs in mice; format: functional
Staphylococcus aureus [6] = test: Antibacterial activity against methicillin-resistant Staphylococcus aureus (MRSA); format: functional
Enterococcus faecium = test: Antibacterial activity against vancomycin-resistant Enterococcal faecium strain; format: functional
Streptococcus pyogenes [7] = test: Antibacterial activity against Streptococcus pyogenes; format: functional
Bacteria = test: Antibacterial activity against Gram negative bacteria; format: functional
Streptococcus pneumoniae = test: Antibacterial activity against penicillin-resistant Streptococcus pneumoniae; format: functional
Enterococcus faecalis [8] = test: Antibacterial activity against Enterococcus faecalis; format: functional
Staphylococcus aureus [9] = test: Antibacterial activity against MSSA (Methicillin-sensitive Staphylococcus aureus); format: functional
[10] = Half life compared to Cilastatin evaluated in Rhesus monkeys at the dose of 10 mg/kg by iv bolus injection; format: ADME, organism-based; design: dose 10 mg/kg, route intravenous; conditions: cercopithecidae, in vivo, read-out: Beta t1/2 (converted)
[11] = Renal clearance compared to Cilastatin evaluated in Rhesus monkeys at the dose of 10 mg/kg by iv bolus injection; format: ADME, organism-based, Kidney; design: dose 10 mg/kg, route intravenous; conditions: cercopithecidae, in vivo, read-out: Renal clearance
[12] = Urinary recovery compared to Cilastatin evaluated in Rhesus monkeys at the dose of 10 mg/kg by iv bolus injection; format: ADME, organism-based, Urine; design: dose 10 mg/kg, route intravenous; conditions: cercopithecidae, in vivo
MecA = molecular target: T2, MecA (Staphylococcus aureus, UniProt Q7DHH4); test: Binding affinity against PBP2a receptor by competition analysis with [3H]benzylpenicillin using cell membrane fractions from the MRSA COL strain.
T2 sequence (Q7DHH4 whole entry): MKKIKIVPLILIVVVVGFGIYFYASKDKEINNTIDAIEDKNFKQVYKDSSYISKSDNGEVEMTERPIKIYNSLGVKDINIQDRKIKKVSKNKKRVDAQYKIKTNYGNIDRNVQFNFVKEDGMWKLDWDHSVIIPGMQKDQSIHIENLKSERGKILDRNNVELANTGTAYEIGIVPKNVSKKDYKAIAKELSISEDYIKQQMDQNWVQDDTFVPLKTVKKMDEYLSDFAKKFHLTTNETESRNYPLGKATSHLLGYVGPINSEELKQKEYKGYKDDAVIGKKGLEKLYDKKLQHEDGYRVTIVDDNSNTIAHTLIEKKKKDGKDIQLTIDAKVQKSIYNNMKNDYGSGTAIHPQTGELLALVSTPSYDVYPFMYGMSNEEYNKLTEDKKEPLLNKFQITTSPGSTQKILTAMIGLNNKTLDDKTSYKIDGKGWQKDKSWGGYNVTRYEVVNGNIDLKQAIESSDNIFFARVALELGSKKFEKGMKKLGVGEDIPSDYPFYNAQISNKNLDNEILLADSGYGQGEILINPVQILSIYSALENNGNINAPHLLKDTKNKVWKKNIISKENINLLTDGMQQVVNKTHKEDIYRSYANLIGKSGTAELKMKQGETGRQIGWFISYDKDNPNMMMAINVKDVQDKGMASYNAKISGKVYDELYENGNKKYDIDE

[13] = Plasma clearance compared to Cilastatin evaluated in Rhesus monkeys at the dose of 10 mg/kg by iv bolus injection; format: ADME, organism-based; design: dose 10 mg/kg, route intravenous; conditions: cercopithecidae
[14] = Glomerular Filtration Rate(GFR)of the compound compared to Cilastatin evaluated in Rhesus monkeys at the dose of 10 mg/kg by iv bolus injection; format: ADME, organism-based; design: dose 10 mg/kg, route intravenous; conditions: cercopithecidae, in vivo
[15] = AUC (area under curve) compared to Cilastatin evaluated in Rhesus monkeys at the dose of 10 mg/kg by iv bolus injection; format: ADME, organism-based; design: dose 10 mg/kg, route intravenous; conditions: cercopithecidae, plasma
[16] = Half life evaluated in Rhesus monkeys at the dose of 10 mg/kg by iv bolus injection; format: ADME, organism-based; design: dose 10 mg/kg, route intravenous; conditions: cercopithecidae, in vivo, read-out: Beta t1/2 (converted)
[17] = AUC (area under curve) evaluated in Rhesus monkeys at the dose of 10 mg/kg by iv bolus injection; format: ADME, organism-based, Plasma; design: dose 10 mg/kg, route intravenous; conditions: cercopithecidae
[18] = Plasma clearance evaluated in Rhesus monkeys at the dose of 10 mg/kg by iv bolus injection; format: ADME, organism-based; design: dose 10 mg/kg, route intravenous; conditions: cercopithecidae
[19] = Renal clearance evaluated in Rhesus monkeys at the dose of 10 mg/kg by iv bolus injection; format: ADME, organism-based, Kidney; design: dose 10 mg/kg, route intravenous; conditions: cercopithecidae, in vivo, read-out: Renal clearance
[20] = Glomerular Filtration Rate(GFR) evaluated in Rhesus monkeys at the dose of 10 mg/kg by iv bolus injection; format: ADME, organism-based; design: dose 10 mg/kg, route intravenous; conditions: cercopithecidae, in vivo
[21] = molecular target: T1, Dipeptidase 1 (Sus scrofa); test: Susceptibility to mammalian dehydropeptidase, DHP-1(Porcine)
Streptococcus pyogenes [22] = test: Antibacterial activity against Streptococcus pyogenes

| SMILES | ED50 (Mus musculus [1]) [mg/kg] | MIC (Enterococcus faecalis [2]) [µg/mL] | MIC (Mus musculus [3]) [µg/mL] | MIC50 (Staphylococcus sp.) [µg/mL] | MIC90 (Staphylococcus sp.) [µg/mL] | ED50 (Mus musculus [5]) [mg kg-1 dose-1] | MIC (Mus musculus [5]) [µg/mL] | MIC50 (Staphylococcus aureus [6]) [µg/mL] | MIC90 (Staphylococcus aureus [6]) [µg/mL] | MIC (Enterococcus faecium) [µg/mL] | MIC (Streptococcus pyogenes [7]) [µg/mL] | MIC (Bacteria) [µg/mL] | MIC (Streptococcus pneumoniae) [µg/mL] | MIC (Enterococcus faecalis [8]) [µg/mL] | MIC (Staphylococcus aureus [9]) [µg/mL] | IC50 (MecA) [nM] | also measured |
| --- | --- | --- | --- | --- | --- | --- | --- | --- | --- | --- | --- | --- | --- | --- | --- | --- | --- |
| C[C@@H](O)[C@H]1C(=O)N2C(C(=O)O)=C(SCCNC=N)C[C@H]12 [IMIPENEM ANHYDROUS] | 0.021 | 8 (≈ 26.7 µM) | 0.008 (≈ 0.0267 µM) | 128 (≈ 428 µM) | 256 (≈ 855 µM) | 15.7 | 64 (≈ 214 µM) | 64 (≈ 214 µM) | 128 (≈ 428 µM) | > 64 | < 0.031 | 0.45 (≈ 1.5 µM) | 0.35 (≈ 1.17 µM) | 2 (≈ 6.68 µM) | 0.03 (≈ 0.1 µM) | – | Rate of hydrolysis [4]: 1 |
| C[C@@H](O)[C@H]1C(=O)N2C(C(=O)O)=C(SCCN=CN)C[C@H]12 [IMIPENEM ANHYDROUS] | – | – | – | – | – | – | – | – | – | – | – | – | – | – | – | 334000 | half-life [10]: 36 min; CL renal [11]: 5.44 mL/min/kg; Urinary recovery [12]: 82; clearance [13]: 6.72 mL/min/kg; GFR [14]: 2.98 mL/min/kg; AUC [15]: 24800 ng·h/mL |
| CN[C@H](CC(C)C)C(=O)N[C@H]1C(=O)N[C@@H](CC(N)=O)C(=O)N[C@H]2C(=O)N[C@H]3C(=O)N[C@H](C(=O)N[C@H](C(=O)O)c4cc(O)cc(O)c4-c4cc3ccc4O)[C@H](O)c3ccc(c(Cl)c3)Oc3cc2cc(c3O[C@@H]2O[C@H](CO)[C@@H](O)[C@H](O)[C@H]2O[C@H]2C[C@](C)(N)[C@H](O)[C@H](C)O2)Oc2ccc(cc2Cl)[C@H]1O [VANCOMYCIN] | 3.7 | 32 (≈ 22.1 µM) | 1 (≈ 0.69 µM) | 4 (≈ 2.76 µM) | 4 (≈ 2.76 µM) | 2.33 | 1 (≈ 0.69 µM) | 1 (≈ 0.69 µM) | 2 (≈ 1.38 µM) | > 64 | 0.25 (≈ 0.173 µM) | > 64 | 0.25 (≈ 0.173 µM) | – | – | – | – |
| C[C@@H](O)[C@H]1C(=O)N2C(C(=O)[O-])=C(c3ccc4c(c3)-c3ccc(C[n+]5ccn(C)c5)cc3C4=O)C[C@H]12 | 0.034 | 1 (≈ 2.13 µM) | 0.008 (≈ 0.017 µM) | 2 (≈ 4.26 µM) | 4 (≈ 8.52 µM) | 0.92 | 1 (≈ 2.13 µM) | 1 (≈ 2.13 µM) | 2 (≈ 4.26 µM) | 4 (≈ 8.52 µM) | < 0.031 | 1.37 (≈ 2.92 µM) | < 0.03 | 0.125 (≈ 0.266 µM) | 0.03 (≈ 0.0639 µM) | 1060 | half-life [16]: 70.2 min; AUC ([17]; plasma, read-out: AUC): 30400 ng·h/mL; clearance [18]: 5.56 mL/min/kg; Rate of hydrolysis [4]: 0.078; CL renal [19]: 2.34 mL/min/kg; GFR [20]: 3.19 mL/min/kg |
| C[C@@H](O)[C@H]1C(=O)N2C(C(=O)[O-])=C(c3ccc4c(c3)-c3ccc(C[N+]56CC[N+](CC(N)=O)(CC5)CC6)cc3C4=O)C[C@H]12.[Cl-] | 0.042 | 2 | 0.004 | 2 | 2 | 0.5 | 1 | 1 | 4 | 16 | – | 1.05 | 0.09 | 0.125 | 0.03 | 573 | half-life [16]: 54.6 min; AUC ([17]; in vivo): 35.14 µg/mL; clearance [18]: 4.74 mL/min/kg; Rate of hydrolysis [21]: 0.055; CL renal [19]: 1.88 mL/min/kg; GFR [20]: 2.96 mL/min/kg; MIC (Streptococcus pyogenes [22]): < 0.031 µg/mL |
| CC[N+]12CC[N+](Cc3ccc4c(c3)C(=O)c3ccc(C5=C(C(=O)O)N6C(=O)[C@H]([C@@H](C)O)[C@H]6C5)cc3-4)(CC1)CC2.[Cl-].[Cl-] | – | – | – | 2 | 4 | – | – | 2 | 4 | – | – | – | – | – | – | 416 | – |
| C[C@@H](O)[C@H]1C(=O)N2C(C(=O)O)=C(c3ccc4c(c3)-c3ccc(C[N+]56CC[N+](CC(=O)Nc7ccccc7C#N)(CC5)CC6)cc3C4=O)[C@H](C)[C@H]12.[Cl-].[Cl-] | – | – | – | 2 | 4 | – | – | 1 | 2 | – | – | – | – | – | – | 1100 | – |
